This note sets out measurements from article doi:10.1101/171595v1 (biorxiv, 2017).

The test system of the assay is HpaM. The conditions noted are these: read-out: apparent Km; 50 mM PBS pH 7.0, 0.2 mM FAD, 5HPA as co-substrate, 25°C.

Take `NC(=O)C1=CN([C@@H]2O[C@H](COP(=O)(O)OP(=O)(O)OC[C@H]3O[C@@H](n4cnc5c(N)ncnc54)[C@H](O)[C@@H]3O)[C@@H](O)[C@H]2O)C=CC1` [NADH]: the Michaelis-Menten constant (Km) turned out to be 37.8 ± 3.4 µM.
